Columns and labels:
Format in all cases: in vivo
corn = assay: Greenhouse trial, effect of pH on selectivity: four corn varieties; details: for % phytotoxicity observed, Corn "Cecilia" 8 DAA / % phytotoxicity observed, Corn "Lorenzo" 8 DAA / % phytotoxicity observed, Corn "Marista" 8 DAA / % phytotoxicity observed, Corn "Blizzard" 28 DAA / % phytotoxicity observed, Corn "Cecilia" 28 DAA / % phytotoxicity observed, Corn "Lorenzo" 28 DAA / % phytotoxicity observed, Corn "Marista" 28 DAA / % phytotoxicity observed, Corn "Blizzard" 8 DAA: early POST, 200 l/ha
Experimental: (§1) A greenhouse trial was conducted to look at the effect of pH on the selectivity of an emulsifiable concentrate composition comprising compound B (compound of formula wherein R^1=methoxy-propyl and R^2═CHF2). Applications were made early POST using four corn varieties and eight weeds (Broad leaf weeds: Amaranthus retroflexus (AMARE), Ipomoea hederacea (IPOHE), Polygonum convolvulus (POLCO) Grasses: Digitaria sanuinalis (DIGSA), Echinochloa crus-galli (ECHCG), Eriochloa villosa (ERBVI), Panicum dichotomiflorum (PANDI), Setaria viridus (SETVI)). The spray volume applied was 200 l/ha. Phytotoxicity evaluations were made 8 days after application (DAA) and/or 28 DAA. Results are provided as % phytotoxicity observed wherein 0=no visible phytotoxicity to 100=complete phytotoxicity.

[1] = system: Amaranthus retroflexus (AMARE); assay: Greenhouse trial, effect of pH on selectivity: weed; details: early POST, 200 l/ha
Experimental: as §1

[2] = system: Digitaria sanuinalis (DIGSA); assay: as above; details: early POST, 200 l/ha
Experimental: as §1

[3] = system: Echinochloa crus-galli (ECHCG); assay: as above; details: early POST, 200 l/ha
Experimental: as §1

[4] = system: Eriochloa villosa (ERBVI); assay: as above; details: early POST, 200 l/ha
Experimental: as §1

[5] = system: Ipomoea hederacea (IPOHE); assay: as above; details: early POST, 200 l/ha
Experimental: as §1

[6] = system: Panicum dichotomiflorum (PANDI); assay: as above; details: early POST, 200 l/ha
Experimental: as §1

[7] = system: Polygonum convolvulus (POLCO); assay: as above; details: early POST, 200 l/ha
Experimental: as §1

Setaria viridus (SETVI) = assay: as above; details: early POST, 200 l/ha
Experimental: as §1

SMILES: COCCCc1nc(C(F)F)ccc1C(=O)C1C(=O)C2CCC(C2)C1=O (stereo not drawn) [Compound B]
- % phytotoxicity observed, Corn "Cecilia" 8 DAA (corn; 100 g ai/ha, pH 3, 8 DAA): 5%
- % phytotoxicity observed, Corn "Lorenzo" 8 DAA (corn; 100 g ai/ha, pH 3, 8 DAA): 20%
- % phytotoxicity observed, Corn "Marista" 8 DAA (corn; 100 g ai/ha, pH 3, 8 DAA): 5%
- % phytotoxicity observed, Corn "Blizzard" 28 DAA (corn; 100 g ai/ha, pH 3, 28 DAA): 10%
- % phytotoxicity observed, Corn "Cecilia" 28 DAA (corn; 100 g ai/ha, pH 3, 28 DAA): 10%
- % phytotoxicity observed, Corn "Lorenzo" 28 DAA (corn; 100 g ai/ha, pH 3, 28 DAA): 25%
- % phytotoxicity observed, Corn "Marista" 28 DAA (corn; 100 g ai/ha, pH 3, 28 DAA): 5%
- % phytotoxicity observed, Corn "Cecilia" 8 DAA (corn; 100 g ai/ha, pH 8, 8 DAA): 5%
- % phytotoxicity observed, Corn "Lorenzo" 8 DAA (corn; 100 g ai/ha, pH 8, 8 DAA): 20%
- % phytotoxicity observed, Corn "Marista" 8 DAA (corn; 100 g ai/ha, pH 8, 8 DAA): 5%
- % phytotoxicity observed, Corn "Blizzard" 28 DAA (corn; 100 g ai/ha, pH 8, 28 DAA): 10%
- % phytotoxicity observed, Corn "Cecilia" 28 DAA (corn; 100 g ai/ha, pH 8, 28 DAA): 10%
- % phytotoxicity observed, Corn "Lorenzo" 28 DAA (corn; 100 g ai/ha, pH 8, 28 DAA): 20%
- % phytotoxicity observed, Corn "Marista" 28 DAA (corn; 100 g ai/ha, pH 8, 28 DAA): 5%
- % phytotoxicity observed, Corn "Blizzard" 8 DAA (corn; 200 g ai/ha, pH 3, 8 DAA): 25%
- % phytotoxicity observed, Corn "Cecilia" 8 DAA (corn; 200 g ai/ha, pH 3, 8 DAA): 20%
- % phytotoxicity observed, Corn "Lorenzo" 8 DAA (corn; 200 g ai/ha, pH 3, 8 DAA): 30%
- % phytotoxicity observed, Corn "Marista" 8 DAA (corn; 200 g ai/ha, pH 3, 8 DAA): 30%
- % phytotoxicity observed, Corn "Blizzard" 28 DAA (corn; 200 g ai/ha, pH 3, 28 DAA): 20%
- % phytotoxicity observed, Corn "Cecilia" 28 DAA (corn; 200 g ai/ha, pH 3, 28 DAA): 20%
- % phytotoxicity observed, Corn "Lorenzo" 28 DAA (corn; 200 g ai/ha, pH 3, 28 DAA): 30%
- % phytotoxicity observed, Corn "Marista" 28 DAA (corn; 200 g ai/ha, pH 3, 28 DAA): 15%
- % phytotoxicity observed, Corn "Blizzard" 8 DAA (corn; 200 g ai/ha, pH 8, 8 DAA): 20%
- % phytotoxicity observed, Corn "Cecilia" 8 DAA (corn; 200 g ai/ha, pH 8, 8 DAA): 20%
- % phytotoxicity observed, Corn "Lorenzo" 8 DAA (corn; 200 g ai/ha, pH 8, 8 DAA): 25%
- % phytotoxicity observed, Corn "Marista" 8 DAA (corn; 200 g ai/ha, pH 8, 8 DAA): 5%
- % phytotoxicity observed, Corn "Blizzard" 28 DAA (corn; 200 g ai/ha, pH 8, 28 DAA): 10%
- % phytotoxicity observed, Corn "Cecilia" 28 DAA (corn; 200 g ai/ha, pH 8, 28 DAA): 10%
- % phytotoxicity observed, Corn "Lorenzo" 28 DAA (corn; 200 g ai/ha, pH 8, 28 DAA): 25%
- % phytotoxicity observed, Corn "Marista" 28 DAA (corn; 200 g ai/ha, pH 8, 28 DAA): 5%
- phytotoxicity observed in corn when applied at pH 8 rather than pH 3 (corn; pH 8 versus pH 3, greenhouse trial, Table C): significantly decreased
- % phytotoxicity observed, AMARE 8 DAA ([1]; 100 g ai/ha, pH 3, 8 DAA): 98%
- % phytotoxicity observed, AMARE 8 DAA ([1]; 100 g ai/ha, pH 8, 8 DAA): 95%
- % phytotoxicity observed, AMARE 8 DAA ([1]; 200 g ai/ha, pH 3, 8 DAA): 100%
- % phytotoxicity observed, AMARE 8 DAA ([1]; 200 g ai/ha, pH 8, 8 DAA): 98%
- % phytotoxicity observed, DIGSA 8 DAA ([2]; 100 g ai/ha, pH 3, 8 DAA): 85%
- % phytotoxicity observed, DIGSA 8 DAA ([2]; 100 g ai/ha, pH 8, 8 DAA): 85%
- % phytotoxicity observed, DIGSA 8 DAA ([2]; 200 g ai/ha, pH 3, 8 DAA): 100%
- % phytotoxicity observed, DIGSA 8 DAA ([2]; 200 g ai/ha, pH 8, 8 DAA): 95%
- % phytotoxicity observed, ECHCG 8 DAA ([3]; 100 g ai/ha, pH 3, 8 DAA): 80%
- % phytotoxicity observed, ECHCG 8 DAA ([3]; 100 g ai/ha, pH 8, 8 DAA): 95%
- % phytotoxicity observed, ECHCG 8 DAA ([3]; 200 g ai/ha, pH 3, 8 DAA): 98%
- % phytotoxicity observed, ECHCG 8 DAA ([3]; 200 g ai/ha, pH 8, 8 DAA): 95%
- % phytotoxicity observed, ERBVI 8 DAA ([4]; 100 g ai/ha, pH 3, 8 DAA): 80%
- % phytotoxicity observed, ERBVI 8 DAA ([4]; 100 g ai/ha, pH 8, 8 DAA): 98%
- % phytotoxicity observed, ERBVI 8 DAA ([4]; 200 g ai/ha, pH 3, 8 DAA): 90%
- % phytotoxicity observed, ERBVI 8 DAA ([4]; 200 g ai/ha, pH 8, 8 DAA): 98%
- % phytotoxicity observed, IPOHE 8 DAA ([5]; 100 g ai/ha, pH 3, 8 DAA): 80%
- % phytotoxicity observed, IPOHE 8 DAA ([5]; 100 g ai/ha, pH 8, 8 DAA): 85%
- % phytotoxicity observed, IPOHE 8 DAA ([5]; 200 g ai/ha, pH 3, 8 DAA): 95%
- % phytotoxicity observed, IPOHE 8 DAA ([5]; 200 g ai/ha, pH 8, 8 DAA): 90%
- % phytotoxicity observed, PANDI 8 DAA ([6]; 100 g ai/ha, pH 3, 8 DAA): 98%
- % phytotoxicity observed, PANDI 8 DAA ([6]; 100 g ai/ha, pH 8, 8 DAA): 98%
- % phytotoxicity observed, PANDI 8 DAA ([6]; 200 g ai/ha, pH 3, 8 DAA): 100%
- % phytotoxicity observed, PANDI 8 DAA ([6]; 200 g ai/ha, pH 8, 8 DAA): 100%
- % phytotoxicity observed, POLCO 8 DAA ([7]; 100 g ai/ha, pH 3, 8 DAA): 80%
- % phytotoxicity observed, POLCO 8 DAA ([7]; 100 g ai/ha, pH 8, 8 DAA): 70%
- % phytotoxicity observed, POLCO 8 DAA ([7]; 200 g ai/ha, pH 3, 8 DAA): 95%
- % phytotoxicity observed, POLCO 8 DAA ([7]; 200 g ai/ha, pH 8, 8 DAA): 90%
- % phytotoxicity observed, SETVI 8 DAA (Setaria viridus (SETVI); 100 g ai/ha, pH 3, 8 DAA): 90%
- % phytotoxicity observed, SETVI 8 DAA (Setaria viridus (SETVI); 100 g ai/ha, pH 8, 8 DAA): 90%
- % phytotoxicity observed, SETVI 8 DAA (Setaria viridus (SETVI); 200 g ai/ha, pH 3, 8 DAA): 100%
- % phytotoxicity observed, SETVI 8 DAA (Setaria viridus (SETVI); 200 g ai/ha, pH 8, 8 DAA): 98%

Reference: US9456604B2, “Herbicide composition” (Syngenta Crop Protection, LLC, priority 2008, dated 2016)
